According to patent US20260297060A1, “COMPOUNDS FOR THE DEGRADATION OF MUTANT BRAF” (C4 THERAPEUTICS, INC., priority 2023, published 2026):
Read-outs that look alike come from different tables or passages of the source.

Experiments:
BRAF V600E = target: T1, BRAF V600E (Homo sapiens, UniProt P15056+Q96SW2, V600E); assay: BRAF V600E HiBiT Degradation Assay; format: cell-based
T1 construct: knock-in of the HiBiT tag to the endogenous BRAF V600E locus; host or cells: A375.10 (A375 clonal line, CRISPR HiBiT knock-in at the endogenous BRAF V600E locus)
T1 sequence (P15056 whole entry V600E): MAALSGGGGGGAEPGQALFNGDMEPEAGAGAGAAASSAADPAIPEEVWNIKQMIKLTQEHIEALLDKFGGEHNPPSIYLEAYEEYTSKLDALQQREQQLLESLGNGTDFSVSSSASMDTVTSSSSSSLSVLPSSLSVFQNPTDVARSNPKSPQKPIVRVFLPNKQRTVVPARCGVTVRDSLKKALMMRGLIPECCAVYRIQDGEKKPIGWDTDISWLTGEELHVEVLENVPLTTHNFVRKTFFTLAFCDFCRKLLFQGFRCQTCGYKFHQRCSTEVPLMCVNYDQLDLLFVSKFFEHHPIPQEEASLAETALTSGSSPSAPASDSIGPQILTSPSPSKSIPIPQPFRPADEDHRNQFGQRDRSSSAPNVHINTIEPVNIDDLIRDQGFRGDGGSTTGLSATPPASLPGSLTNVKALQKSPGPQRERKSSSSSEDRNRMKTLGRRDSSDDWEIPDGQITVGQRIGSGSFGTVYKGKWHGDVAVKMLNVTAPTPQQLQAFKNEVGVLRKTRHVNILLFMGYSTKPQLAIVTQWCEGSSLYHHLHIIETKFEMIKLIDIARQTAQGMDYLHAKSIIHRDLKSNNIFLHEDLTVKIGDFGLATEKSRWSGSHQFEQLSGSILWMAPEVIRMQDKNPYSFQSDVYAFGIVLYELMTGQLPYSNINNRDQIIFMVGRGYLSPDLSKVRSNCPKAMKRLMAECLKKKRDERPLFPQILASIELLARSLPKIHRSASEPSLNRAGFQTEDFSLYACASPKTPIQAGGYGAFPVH
T1 sequence (Q96SW2 whole entry): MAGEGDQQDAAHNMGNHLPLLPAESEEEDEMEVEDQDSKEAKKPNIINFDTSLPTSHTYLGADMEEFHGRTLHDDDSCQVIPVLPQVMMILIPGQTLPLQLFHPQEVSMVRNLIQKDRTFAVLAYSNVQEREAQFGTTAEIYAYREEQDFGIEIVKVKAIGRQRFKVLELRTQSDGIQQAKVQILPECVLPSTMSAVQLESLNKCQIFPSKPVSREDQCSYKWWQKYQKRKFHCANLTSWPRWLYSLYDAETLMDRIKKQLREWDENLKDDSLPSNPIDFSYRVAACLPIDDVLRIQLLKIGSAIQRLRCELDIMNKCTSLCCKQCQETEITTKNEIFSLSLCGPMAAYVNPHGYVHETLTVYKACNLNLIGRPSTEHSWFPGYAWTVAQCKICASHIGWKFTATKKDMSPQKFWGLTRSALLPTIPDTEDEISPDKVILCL
T1 sequence (Q16531 whole entry partner): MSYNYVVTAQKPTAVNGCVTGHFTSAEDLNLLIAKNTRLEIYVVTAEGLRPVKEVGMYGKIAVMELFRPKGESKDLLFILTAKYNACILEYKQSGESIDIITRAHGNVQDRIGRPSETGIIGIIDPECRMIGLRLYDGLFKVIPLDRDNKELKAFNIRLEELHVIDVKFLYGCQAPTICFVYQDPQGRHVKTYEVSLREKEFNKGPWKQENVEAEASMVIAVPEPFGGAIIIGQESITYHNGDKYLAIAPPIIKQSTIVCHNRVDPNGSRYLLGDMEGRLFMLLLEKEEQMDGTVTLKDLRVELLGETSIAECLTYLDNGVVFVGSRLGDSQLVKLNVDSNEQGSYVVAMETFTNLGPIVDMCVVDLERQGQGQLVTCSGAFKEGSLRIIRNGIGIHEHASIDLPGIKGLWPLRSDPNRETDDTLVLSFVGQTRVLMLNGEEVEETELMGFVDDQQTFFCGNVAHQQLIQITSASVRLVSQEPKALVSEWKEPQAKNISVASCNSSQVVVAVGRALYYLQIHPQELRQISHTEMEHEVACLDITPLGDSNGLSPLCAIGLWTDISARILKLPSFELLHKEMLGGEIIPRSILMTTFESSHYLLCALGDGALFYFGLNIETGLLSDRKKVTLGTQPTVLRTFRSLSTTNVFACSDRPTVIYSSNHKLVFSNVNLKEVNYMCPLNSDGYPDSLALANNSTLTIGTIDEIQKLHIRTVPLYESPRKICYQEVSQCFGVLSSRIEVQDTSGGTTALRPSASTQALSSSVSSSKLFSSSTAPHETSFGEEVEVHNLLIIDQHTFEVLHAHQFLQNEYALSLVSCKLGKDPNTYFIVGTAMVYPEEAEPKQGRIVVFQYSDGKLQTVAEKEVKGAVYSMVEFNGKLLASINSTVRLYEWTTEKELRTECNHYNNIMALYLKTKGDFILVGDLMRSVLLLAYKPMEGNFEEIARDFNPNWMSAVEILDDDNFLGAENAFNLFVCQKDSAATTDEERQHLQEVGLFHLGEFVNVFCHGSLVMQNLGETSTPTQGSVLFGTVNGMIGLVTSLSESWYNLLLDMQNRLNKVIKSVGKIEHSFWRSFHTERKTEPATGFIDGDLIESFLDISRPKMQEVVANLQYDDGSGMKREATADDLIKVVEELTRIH
How it was run: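 Endogenous HiBiT knock-in on BRAF V600E in A375 cells (clone A375.10); 11-point half-log series, top 10 μM, 2, 6 or 24 h at 37° C. Lytic HiBiT luminescence, background-subtracted, normalized to DMSO; 4-parameter fit gives DC50, Emax (residual protein) and IP (inflection point).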

A375-NRAS^Q61K cells = assay: CTGlo Cell Viability Assay, A375-NRAS^Q61K (A375.11) cells, 96 hours; format: cell-based, human; settings: A375.11 (A375-NRAS^Q61K) cells; for Emax / CTGlo A375.11 96 hours Emax: lowest % viability achieved
How it was run: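 A375 cells carrying BRAF V600E and NRAS Q61K were seeded at 250 cells/well with a 10-point half-log dose series (max 10 μM final). After 96 h at 37 °C, viability was read as ATP luminescence (CellTiter-Glo), background-subtracted and normalized to DMSO (100%). GI50 from 4-parameter fit; Emax is the lowest % viability.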

[1] = A375.10 cells, BRAF V600E, 2 hours, inflection point, read-out: HiBiT-Degradation A375.10 BRAF 2 hours IP
[2] = A375.10 cells, BRAF V600E, 2 hours, read-out: HiBiT-Degradation A375.10 BRAF 2 hours DC50
[3] = A375.10 cells, BRAF V600E, 2 hours, residual protein remaining, read-out: HiBiT-Degradation A375.10 BRAF 2 hours Emax
[4] = A375.10 cells, BRAF V600E, 2 hours, residual protein remaining
[5] = read-out: HiBiT-Degradation A375.10 BRAF 2 hours DC50, A375.10 cells, BRAF V600E, 2 hours
[6] = read-out: HiBiT-Degradation A375.10 BRAF 2 hours IP, A375.10 cells, BRAF V600E, 2 hours, inflection point

| DC50 (BRAF V600E; [1]) | DC50 (BRAF V600E; [2]) | Emax (BRAF V600E; [3]) | GI50 (A375-NRAS^Q61K cells; Homo sapiens, 96 h) | HiBiT-Degradation A375.10 BRAF 2 hours Emax (BRAF V600E; [4]) | GI50 (A375-NRAS^Q61K cells) | SMILES | Emax (A375-NRAS^Q61K cells; Homo sapiens, 96 h) | CTGlo A375.11 96 hours Emax (A375-NRAS^Q61K cells) | other results |
| --- | --- | --- | --- | --- | --- | --- | --- | --- | --- |
| < 1000 nM | 1000 to 10000 nM | 50 to 90% | 1000 to 10000 nM | – | – | CCN(C)S(=O)(=O)Nc1ccc(F)c(Oc2ccc3ncc(OCC4(F)CCN(C5CCC(c6cc7c(cc6F)c(N6CCC(=O)NC6=O)nn7C)CC5)CC4)nc3c2)c1C#N (single isomer, unassigned) [Compound 228, 7-[2-cyano-3-[[ethyl(methyl)sulfamoyl]amino]-6-fluoro-phenoxy]-2-[[1-[4-[3-(2,4-dioxohexahydropyrimidin-1-yl)-5-fluoro-1-methyl-indazol-6-yl]cyclohexyl]-4-fluoro-4-piperidyl]methoxy]quinoxaline] | 50 to 90% | – | – |
| < 1000 nM | < 1000 nM | – | – | *** (<=50%) | < 1000 nM | CCN(C)S(=O)(=O)Nc1ccc(F)c(Oc2ccc3ncc(OCC4(F)CCN(C5CCC(c6cc7c(cc6F)c(N6CCC(=O)NC6=O)nn7C)CC5)CC4)nc3c2)c1C#N (single isomer, unassigned) [Compound 229, 7-[2-cyano-3-[[ethyl(methyl)sulfamoyl]amino]-6-fluoro-phenoxy]-2-[[1-[4-[3-(2,4-dioxohexahydropyrimidin-1-yl)-5-fluoro-1-methyl-indazol-6-yl]cyclohexyl]-4-fluoro-4-piperidyl]methoxy]quinoxaline] | – | ** (<90% and >50%) | – |
| < 1000 nM | < 1000 nM | – | > 10000 nM | – | – | CCN(C)S(=O)(=O)Nc1ccc(F)c(Oc2ccc3ncnc(OC4CC5(C4)CN(C4CCC(c6cc7c(cc6F)c(N6CCC(=O)NC6=O)nn7C)CC4)C5)c3c2)c1C#N (single isomer, unassigned) [Compound 232, 6-[2-cyano-3-[[ethyl(methyl)sulfamoyl]amino]-6-fluoro-phenoxy]-4-[[2-[4-[3-(2,4-dioxohexahydropyrimidin-1-yl)-5-fluoro-1-methyl-indazol-6-yl]cyclohexyl]-2-azaspiro[3.3]heptan-6-yl]oxy]quinazoline] | 50 to 90% | – | Emax (BRAF V600E; read-out: HiBiT-Degradation A375.10 BRAF 2 hours Emax, A375.10 cells, BRAF V600E, 2 hours, residual protein remaining): 50 to 90% |
| < 1000 nM | < 1000 nM | – | – | – | > 10000 nM | CCN(C)S(=O)(=O)Nc1ccc(F)c(Oc2ccc3ncnc(OC4CC5(C4)CN(C4CCC(c6cc7c(cc6F)c(N6CCC(=O)NC6=O)nn7C)CC4)C5)c3c2)c1C#N (single isomer, unassigned) [Compound 233, 6-[2-cyano-3-[[ethyl(methyl)sulfamoyl]amino]-6-fluoro-phenoxy]-4-[[2-[4-[3-(2,4-dioxohexahydropyrimidin-1-yl)-5-fluoro-1-methyl-indazol-6-yl]cyclohexyl]-2-azaspiro[3.3]heptan-6-yl]oxy]quinazoline] | – | ** (<90% and >50%) | HiBiT-Degradation A375.10 BRAF 2 hours Emax (BRAF V600E): ** (<90% and >50%) |
| < 1000 nM | 1000 to 10000 nM | < 50% | – | – | > 10000 nM | CCN(C)S(=O)(=O)Nc1ccc(F)c(Oc2ccc3ncn([C@H]4COC5(C4)CN(C4CCC(c6cc7c(cc6F)c(N6CCC(=O)NC6=O)nn7C)CC4)C5)c(=O)c3c2)c1C#N (single isomer, unassigned) [Compound 235] | 50 to 90% | – | – |
| < 1000 nM | < 1000 nM | – | – | *** (<=50%) | 1000 to 10000 nM | CCN(C)S(=O)(=O)Nc1ccc(F)c(Oc2ccc3ncn([C@H]4COC5(C4)CN(C4CCC(c6cc7c(cc6F)c(N6CCC(=O)NC6=O)nn7C)CC4)C5)c(=O)c3c2)c1C#N (single isomer, unassigned) [Compound 236] | – | ** (<90% and >50%) | – |
| < 1000 nM | < 1000 nM | < 50% | – | – | > 10000 nM | CCN(C)S(=O)(=O)Nc1ccc(F)c(Oc2ccc3ncn([C@@H]4COC5(C4)CN(C4CCC(c6cc7c(cc6F)c(N6CCC(=O)NC6=O)nn7C)CC4)C5)c(=O)c3c2)c1C#N (single isomer, unassigned) [Compound 237] | 50 to 90% | – | – |
| < 1000 nM | < 1000 nM | – | – | *** (<=50%) | < 1000 nM | CCN(C)S(=O)(=O)Nc1ccc(F)c(Oc2ccc3ncn([C@@H]4COC5(C4)CN(C4CCC(c6cc7c(cc6F)c(N6CCC(=O)NC6=O)nn7C)CC4)C5)c(=O)c3c2)c1C#N (single isomer, unassigned) [Compound 238] | – | ** (<90% and >50%) | DC50 (BRAF V600E; A375.10 cells, HiBiT, BRAF V600E, 24 hours, read-out: HiBiT-Degradation A375.10 BRAF 24 hours DC50): < 1000 nM; Emax (BRAF V600E; A375.10 cells, HiBiT, BRAF V600E, 24 hours, read-out: HiBiT-Degradation A375.10 BRAF 24 hours Emax): < 50%; DC50 (BRAF V600E; A375.10 cells, HiBiT, BRAF V600E, 24 hours, read-out: HiBiT-Degradation A375.10 BRAF 24 hours IP): < 1000 nM |
| < 1000 nM | < 1000 nM | < 50% | 1000 to 10000 nM | – | – | CCN(C)S(=O)(=O)Nc1ccc(F)c(Oc2ccc3ncn(C4[C@H]5CN(C6CCC(c7cc8c(cc7F)c(N7CCC(=O)NC7=O)nn8C)CC6)C[C@@H]45)c(=O)c3c2)c1C#N (single isomer, unassigned) [Compound 240] | 50 to 90% | – | – |
| < 1000 nM | 1000 to 10000 nM | 50 to 90% | 1000 to 10000 nM | – | – | CCN(C)S(=O)(=O)Nc1ccc(F)c(Oc2ccc3ncnc(OC4CC5(CCN(C6CCC(c7cc8c(cc7F)c(N7CCC(=O)NC7=O)nn8C)CC6)CC5)C4)c3c2)c1C#N (single isomer, unassigned) [Compound 243, 6-[2-cyano-3-[[ethyl(methyl)sulfamoyl]amino]-6-fluoro-phenoxy]-4-[[7-[4-[3-(2,4-dioxohexahydropyrimidin-1-yl)-5-fluoro-1-methyl-indazol-6-yl]cyclohexyl]-7-azaspiro[3.5]nonan-2-yl]oxy]quinazoline] | 50 to 90% | – | – |
| < 1000 nM | < 1000 nM | < 50% | 1000 to 10000 nM | – | – | CC(C)S(=O)(=O)Nc1ccc(F)c(Oc2ccc3ncc(C4CC5(CCN(C6CCC(c7cc8c(cc7F)c(N7CCC(=O)NC7=O)nn8C)CC6)CC5)C4)nc3c2)c1C#N (single isomer, unassigned) [Compound 248, N-[2-cyano-3-[3-[7-[4-[3-(2,4-dioxohexahydropyrimidin-1-yl)-5-fluoro-1-methyl-indazol-6-yl]cyclohexyl]-7-azaspiro[3.5]nonan-2-yl]quinoxalin-6-yl]oxy-4-fluoro-phenyl]propane-2-sulfonamide] | 50 to 90% | – | – |
| < 1000 nM | < 1000 nM | – | – | *** (<=50%) | < 1000 nM | CC(C)S(=O)(=O)Nc1ccc(F)c(Oc2ccc3ncc(C4CC5(CCN(C6CCC(c7cc8c(cc7F)c(N7CCC(=O)NC7=O)nn8C)CC6)CC5)C4)nc3c2)c1C#N (single isomer, unassigned) [Compound 249, N-[2-cyano-3-[3-[7-[4-[3-(2,4-dioxohexahydropyrimidin-1-yl)-5-fluoro-1-methyl-indazol-6-yl]cyclohexyl]-7-azaspiro[3.5]nonan-2-yl]quinoxalin-6-yl]oxy-4-fluoro-phenyl]propane-2-sulfonamide] | – | ** (<90% and >50%) | – |
| < 1000 nM | < 1000 nM | < 50% | < 1000 nM | – | – | Cn1nc(N2CCC(=O)NC2=O)c2cc(F)c([C@H]3CC[C@@H](N4CCC5(CC4)CC(c4cnc6ccc(Oc7c(F)ccc(NS(=O)(=O)N8CC[C@@H](F)C8)c7C#N)cc6n4)C5)CC3)cc21 (single isomer, unassigned) [Compound 268] | < 50% | – | – |
| – | – | < 50% | < 1000 nM | – | – | Cn1nc(N2CCC(=O)NC2=O)c2cc(F)c(C3CCC(N4CCC5(CC4)CC(c4cnc6ccc(Oc7c(F)ccc(NS(=O)(=O)C8CCCC8)c7C#N)cc6n4)C5)CC3)cc21 (single isomer, unassigned) [Compound 270, N-[2-cyano-3-[3-[7-[4-[3-(2,4-dioxohexahydropyrimidin-1-yl)-5-fluoro-1-methyl-indazol-6-yl]cyclohexyl]-7-azaspiro[3.5]nonan-2-yl]quinoxalin-6-yl]oxy-4-fluoro-phenyl]cyclopentanesulfonamide] | 50 to 90% | – | DC50 (BRAF V600E; [5]): < 1000 nM; DC50 (BRAF V600E; [6]): < 1000 nM |
| – | – | – | – | *** (<=50%) | < 1000 nM | Cn1nc(N2CCC(=O)NC2=O)c2cc(F)c(C3CCC(N4CCC5(CC4)CC(c4cnc6ccc(Oc7c(F)ccc(NS(=O)(=O)C8CCCC8)c7C#N)cc6n4)C5)CC3)cc21 (single isomer, unassigned) [Compound 271, N-[2-cyano-3-[3-[7-[4-[3-(2,4-dioxohexahydropyrimidin-1-yl)-5-fluoro-1-methyl-indazol-6-yl]cyclohexyl]-7-azaspiro[3.5]nonan-2-yl]quinoxalin-6-yl]oxy-4-fluoro-phenyl]cyclopentanesulfonamide] | – | *** (<=50%) | DC50 (BRAF V600E; [5]): < 1000 nM; DC50 (BRAF V600E; [6]): < 1000 nM |
